# Measured values from PubChem BioAssay (NCI).
#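 GI50 marks 50% less growth. TGI is the concentration that stops growth completely.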
# What was measured:
# Experiment in all cases: inhibition of tumour cell growth, NCI panel, 384-well format
# [1] = test system: 786-0 renal
# [2] = test system: LOX IMVI melanoma
# [3] = test system: SN12C renal
# [4] = test system: RXF 393 renal
# [5] = test system: HS 578T breast
# [6] = test system: MDA-MB-468 breast
# [7] = test system: HOP-62 NSCLC
# [8] = test system: MOLT-4 leukemia
# [9] = test system: A549 NSCLC
# [10] = test system: MALME-3M melanoma
# [11] = test system: SK-MEL-5 melanoma
# [12] = test system: M14 melanoma
# [13] = test system: SK-MEL-28 melanoma
# [14] = test system: U251 glioblastoma
# [15] = test system: KM12 colon
# [16] = test system: OVCAR-3 ovarian
# [17] = test system: SNB-19 CNS
# [18] = test system: UO-31 renal
# [19] = test system: A498 renal
# [20] = test system: COLO 205 colon
# [21] = test system: MDA-MB-231 breast
# [22] = test system: SR leukemia
# [23] = test system: SW-620 colon
# [24] = test system: HOP-92 NSCLC
# [25] = test system: SF-295 CNS
# [26] = test system: UACC-62 melanoma
# [27] = test system: SF-539 CNS
# [28] = test system: NCI-H522 lung
# [29] = test system: BT-549 breast
# [30] = test system: T-47D breast
# [31] = test system: NCI-H322M lung
# [32] = test system: PC-3 prostate
# [33] = test system: HCT-15 colon
# [34] = test system: IGROV1 ovarian
# [35] = test system: UACC-257 melanoma
# [36] = test system: SNB-75 CNS
# [37] = test system: OVCAR-4 ovarian
# [38] = test system: CAKI-1 renal
# [39] = test system: RPMI-8226 leukemia
# [40] = test system: NCI-H226 lung
# [41] = test system: NCI/ADR-RES ovarian
# [42] = test system: ACHN renal
# [43] = test system: DU-145 prostate
# [44] = test system: OVCAR-8 ovarian
# [45] = test system: NCI-H460 NSCLC
# [46] = test system: SK-OV-3 ovarian
# [47] = test system: NCI-H23 lung
# [48] = test system: OVCAR-5 ovarian
# [49] = test system: HT29 colon
# [50] = test system: HCC-2998 colon
# [51] = test system: MDA-MB-435 melanoma
# [52] = test system: CCRF-CEM leukemia
# [53] = test system: SF-268 CNS
# [54] = test system: MCF7 breast
# [55] = test system: HL-60(TB) leukemia
# [56] = test system: TK-10 renal
# [57] = test system: HCT-116 colon
# [58] = test system: EKVX NSCLC
structure (smiles),measurement,setting,value
Cc1cc(Nc2ncnc3ccc(NC4=NC(C)(C)CO4)cc23)ccc1Oc1ccn2ncnc2c1,GI50,[1],4.25 µM
same,TGI,[1],8.71 µM
same,GI50,[2],14.6 µM
same,TGI,[2],28.7 µM
same,GI50,[3],5.84 µM
same,TGI,[3],20 µM
same,GI50,[4],7.33 µM
same,TGI,[4],> 27.7 µM
same,GI50,[5],3.74 µM
same,TGI,[5],8.79 µM
same,GI50,[6],6.86 µM
same,TGI,[6],19.1 µM
same,GI50,[7],13.5 µM
same,TGI,[7],28.7 µM
same,GI50,[8],1.93 µM
same,TGI,[8],7.7 µM
same,GI50,[9],14.6 µM
same,TGI,[9],> 47.3 µM
same,GI50,[10],2.29 µM
same,TGI,[10],7.05 µM
same,GI50,[11],12.3 µM
same,TGI,[11],26.6 µM
same,GI50,[12],11.4 µM
same,TGI,[12],> 57.2 µM
same,GI50,[13],8.21 µM
same,TGI,[13],49.7 µM
same,GI50,[14],15.9 µM
same,TGI,[14],36.1 µM
same,GI50,[15],2.64 µM
same,TGI,[15],> 55 µM
same,GI50,[16],4.71 µM
same,TGI,[16],10 µM
same,GI50,[17],9.26 µM
same,TGI,[17],> 61.7 µM
same,GI50,[18],3.27 µM
same,TGI,[18],8.28 µM
same,GI50,[19],4.69 µM
same,TGI,[19],9.11 µM
same,GI50,[20],> 40.9 µM
same,TGI,[20],> 55.1 µM
same,GI50,[21],13.6 µM
same,TGI,[21],27.7 µM
same,GI50,[22],0.407 µM
same,TGI,[22],0.814 µM
same,GI50,[23],6.12 µM
same,TGI,[23],> 57.8 µM
same,GI50,[24],4.48 µM
same,TGI,[24],10.3 µM
same,GI50,[25],16.3 µM
same,TGI,[25],32.9 µM
same,GI50,[26],5.05 µM
same,TGI,[26],10.3 µM
same,GI50,[27],5.18 µM
same,TGI,[27],9.56 µM
same,GI50,[28],1.29 µM
same,TGI,[28],23.7 µM
same,GI50,[29],5.36 µM
same,TGI,[29],10.7 µM
same,GI50,[30],2.9 µM
same,TGI,[30],21.3 µM
same,GI50,[31],5.09 µM
same,TGI,[31],> 43.6 µM
same,GI50,[32],8.56 µM
same,TGI,[32],> 53.8 µM
same,GI50,[33],9.08 µM
same,TGI,[33],25.4 µM
same,GI50,[34],5 µM
same,TGI,[34],> 40.4 µM
same,GI50,[35],20.2 µM
same,TGI,[35],44.6 µM
same,GI50,[36],6.7 µM
same,TGI,[36],13.8 µM
same,GI50,[37],10.3 µM
same,TGI,[37],22.6 µM
same,GI50,[38],4.23 µM
same,TGI,[38],12.6 µM
same,GI50,[39],2.54 µM
same,TGI,[39],14.9 µM
same,GI50,[40],12.5 µM
same,TGI,[40],> 43 µM
same,GI50,[41],14.3 µM
same,TGI,[41],27.5 µM
same,GI50,[42],12.6 µM
same,TGI,[42],> 46.9 µM
same,GI50,[43],13.6 µM
same,TGI,[43],27.8 µM
same,GI50,[44],14.3 µM
same,TGI,[44],> 44.3 µM
same,GI50,[45],4.32 µM
same,TGI,[45],9.09 µM
same,GI50,[46],13 µM
same,TGI,[46],> 46 µM
same,GI50,[47],25.1 µM
same,TGI,[47],> 53.1 µM
same,GI50,[48],> 38.8 µM
same,TGI,[48],> 58.1 µM
same,GI50,[49],29.9 µM
same,TGI,[49],> 100 µM
same,GI50,[50],24.3 µM
same,TGI,[50],98.8 µM
same,GI50,[51],18.6 µM
same,TGI,[51],> 59.6 µM
same,GI50,[52],22.9 µM
same,TGI,[52],> 100 µM
same,GI50,[53],6.32 µM
same,TGI,[53],> 50.2 µM
same,GI50,[54],18.3 µM
same,TGI,[54],> 48.2 µM
same,GI50,[55],5.59 µM
same,TGI,[55],10.3 µM
same,GI50,[56],15.2 µM
same,TGI,[56],36 µM
same,GI50,[57],6.82 µM
same,TGI,[57],20.3 µM
same,GI50,[58],23 µM
same,TGI,[58],> 46 µM
